Source: the NIST ThermoML archive (doi:10.1016/j.tca.2011.06.003)
± gives the expanded uncertainty stated by the source.

Conditions: 298.15 K, 101.33 kPa, Liquid; for viscosity: Capillary tube (Ostwald / Ubbelohde) method; for speed of sound: Sing-around technique in a fixed-path interferometer; for mass density: Vibrating tube method

viscosity	speed of sound	mass density	SMILES
3.307 ± 0.02 mPa·s	1188.8 ± 0.8 m/s	798.104 ± 0.14 kg/m3	CC(C)CO [2-methyl-1-propanol]
5.627 ± 0.033 mPa·s	1670.5 ± 1 m/s	945.548 ± 0.099 kg/m3	NCCNCCN [di(2-aminoethyl)amine]
2.063 ± 0.013 mPa·s	1140.4 ± 0.8 m/s	781.482 ± 0.15 kg/m3	CC(C)O [propan-2-ol]
2.565 ± 0.016 mPa·s	1241.1 ± 0.8 m/s	805.953 ± 0.14 kg/m3	CCCCO [butan-1-ol]
